Patent US6828450B2, “Triptycene analogs” (Kansas State University Research Foundation, priority 2000, dated 2004)
Where two headings read alike, the source gives them in different places.

Tests used:
HL-60-RV cells = assay: HL-60-RV (MDR) cell proliferation assay; format: cell-based, human; conditions: for IC50: read-out: IC50, inhibition of HL-60-RV cell proliferation
From the text: (§1) The MDR HL-60-RV and HL-60-R8 cells were developed in Melvin S. Center's laboratory (Kansas State University) and similarly maintained in RPMI 1640 medium in the absence of drugs (Marsh W, et al, Cancer Res 46: 4053-4057, 1986; McGrath T et al, and Center M S: Biochem Biophys Res Commun 145: 1171-1176, 1987; Marsh W and Center M S: Cancer Res 47: 5080-5086, 1987; McGrath T, et al, Biochem Pharmacol 38: 3611-3619, 1989; Marquardt D, et al, Cancer Res 50: 1426-1430, 1990; Marquardt D and Center M S: J Natl Cancer Inst 83: 1089-1109, 1991; Krishnamachary N and Center M S; Cancer Res 53: 3658-3661, 1993). Every 4 weeks, these HL-60-RV and HL-60-R8 sublines were exposed to 41 nM DAU for 48 h to stabilize their MDR phenotype. This concentration of DAU, which is not cytotoxic to MDR HL-60 sublines, was removed from the culture medium at least 48 h before experimentation. […] RFs were determined by dividing the IC50 of the MDR cells by that of the sensitive WT parent cell line.

HL-60-S cells [1] = assay: DNA synthesis in HL-60-S cells; format: cell-based, human; conditions: for IC50: read-out: IC50, inhibition of DNA synthesis in HL-60-S cells
L1210 cells = assay: Mitotic index of L1210 cells; format: cell-based, murine; conditions: 24 h; for decrease of the % of mitotic cells: DAU 0.256-1.6 μM, highest concentrations of TT2 tested
Experimental: FIG. 18. Effects of the novel TT analog TT2 and DAU on the mitotic index of L1210 cells in vitro. […] Cells (10^6/0.5 ml of RPMI 1640 medium) were incubated in triplicate for 24 h at 37° C. in the presence or absence (control) of 0.256, 0.64, 1.6 and 4 μM TT2, 0.256, 0.64 and 1.6 μM DAU, 0.2 μM VCR or 1 μM H10. After fixation with MeOH:acetic acid (3:1) and staining with 0.1% crystal violet, about 500 cells/slide were scored for mitotic figures and the mitotic index was expressed as the % of mitotic cells in drug-treated cultures divided by the % of mitotic cells in non-treated controls. The mean % of mitotic cells in control at 24 h was 1.86±0.43%.
L1210 cells (about 1×10^6/0.5 ml of FCS-containing RPMI 1640 medium) were incubated in triplicate for 24 h at 37° C. in the presence or absence of TTs or known antimitotic drugs, and collected by centrifugation at 200×g for 10 min to determine their mitotic index. For hypotonic treatment, cells were resuspended in 1 ml of 75 mM KCl for 20 min at 4° C. After fixation in 1 ml of MeOH:acetic acid (3:1), the final cell pellets were collected by centrifugation, resuspended in 75 μl of MeOH:acetic acid (3:1), dispensed onto glass slides, air dried, and stained by spreading 40 μl of 0.1% crystal violet under a coverslip. The % of cells in mitosis was determined microscopically by counting 500 cells/slides. The mitotic index was calculated as the % of mitotic cells in drug-treated cultures divided by the % of mitotic cells in non-treated controls.

HL-60-S cells [2] = assay: Nucleoside transport in HL-60-S cells; format: cell-based, human; conditions: for IC50: 15-min preincubation, 30 s
From the text: FIG. 15. Comparison of the concentration-dependent inhibitions of the cellular transport of purine (A) and pyrimidine (B) nucleosides by DAU (open symbols) and TT2 (closed symbols) in HL-60-S (circles), HL-60-RV (squares) and HL-60-R8 (triangles) cells in vitro. Results are expressed as % of ^3H-adenosine (26,032±2,239 cpm, 100±9%, striped area in A) and ^3H-thymidine (17,934±1,398 cpm, 100±8%, striped area in B) transported into vehicle-treated control cells over 30 s.
as §1
L1210 cells (about 1.5×10^6 cells/0.5 ml) were preincubated for 15 min at 37° C. in the presence or absence of TTs and then exposed to 1 μCi of ^3H-thymidine for only 30 sec to assess the cellular uptake of nucleoside over such very short period of time. […] Cell lysates were mixed with 9 ml of Bio-Safe II (Researeh Products International) and counted to estimate the cellular uptake of ^3H-thymidine. Drug inhibition was expressed as % of ^3H-thymidine or ^3H-adenosine transported into vehicle-treated control cells over similar 30-sec period.

HL-60-S cells [3] = assay: HL-60-S cell proliferation assay; format: cell-based, human
From the text: as §1

[4] = HL-60-RV and HL-60-R8 vs HL-60-S
[5] = HL-60-RV and HL-60-R8 vs HL-60-S, day 2
[6] = HL-60-RV and HL-60-R8 vs HL-60-S, day 4

COC1=CC(=O)C2=C(C1=O)C1C3=C(C(=O)C=CC3=O)C2c2ccccc21 (stereo not shown) [TT2, 2-Methoxy-9,10-dihydro-9,10-[1′,2′]benzenoanthracene-1,4,5,8-tetraone]
RFs, tumor cell growth, viability and DNA synthesis together (HL-60-RV cells; [4]): 0.9-1.5 | RFs, cell proliferation (IC50 of MDR cells / IC50 of WT HL-60-S) (HL-60-RV cells; [5]): 0.9-1.3 | RFs, cell proliferation (IC50 of MDR cells / IC50 of WT HL-60-S) (HL-60-RV cells; [6]): 0.9-1.0 | IC50 (HL-60-RV cells; day 2): 0.5 µM | IC50 (HL-60-RV cells; day 4): 0.26 µM | times TT2 inhibits DNA synthesis less effectively than DAU (HL-60-S cells [1]; HL-60-S): 9 times | IC50 (HL-60-S cells [1]): 1.8 µM | effect on the mitotic index (L1210 cells): does not increase | decrease of the % of mitotic cells (L1210 cells): 38-48% | IC50 (HL-60-S cells [2]; purine nucleoside, read-out: IC50, cellular transport of 3H-adenosine in HL-60-S cells): 3.3 µM | IC50 (HL-60-S cells [2]; pyrimidine nucleoside, read-out: IC50, cellular transport of 3H-thymidine in HL-60-S cells): 2 µM | times TT2 inhibits tumor cell growth less effectively than DAU (HL-60-S cells [3]; HL-60-S): 33 times | IC50 (HL-60-S cells [3]; HL-60-S, HL-60-RV and HL-60-R8, day 4, read-out: IC50 values, inhibition of cell proliferation, range over the three lines): 0.26 to 0.3 µM | IC50 (HL-60-S cells [3]; day 2, read-out: IC50, inhibition of HL-60-S cell proliferation): 0.4 µM | IC50 (HL-60-S cells [3]; day 4, read-out: IC50, inhibition of HL-60-S cell proliferation): 0.3 µM

COc1cccc2c1C(=O)c1c(O)c3c(c(O)c1C2=O)C[C@@](O)(C(C)=O)C[C@@H]3O[C@H]1C[C@H](N)[C@H](O)[C@H](C)O1 [DAU, daunomycin, reference compound]
times less effective as cytostatic agent in MDR than in WT HL-60 cells (HL-60-RV cells; [4]): about 30 times | RFs, cell proliferation (IC50 of MDR cells / IC50 of WT HL-60-S) (HL-60-RV cells; [5]): 22.9-35.7 | RFs, cell proliferation (IC50 of MDR cells / IC50 of WT HL-60-S) (HL-60-RV cells; [6]): 25.0-30.6 | IC50 (HL-60-RV cells; Homo sapiens, 48 h): 0.5 µM | IC50 (HL-60-RV cells; Homo sapiens, 96 h): 0.275 µM | IC50 (HL-60-S cells [1]; Homo sapiens): 0.21 µM | decrease of the % of mitotic cells (L1210 cells): 74-91% | effect on nucleoside transport in WT HL-60-S cells (HL-60-S cells [2]): fails to significantly inhibit | IC50 (HL-60-S cells [3]; Homo sapiens, 48 h, read-out: IC50, inhibition of HL-60-S cell proliferation): 0.014 µM | IC50 (HL-60-S cells [3]; Homo sapiens, 96 h, read-out: IC50, inhibition of HL-60-S cell proliferation): 0.009 µM
